In ChEMBL document CHEMBL1124752, “Cyclobut-A and cyclobut-G: broad-spectrum antiviral agents with potential utility for the therapy of AIDS” (J Med Chem, 1990):
Converted amounts (≈) assume the structure as drawn.

What was measured:
Human alphaherpesvirus 2 [1] = test: Tested for mean day to death of nonsurvivors against HSV-2 encephalitis in mice at 31.2 mg/kg per day; format: functional
Human alphaherpesvirus 2 [2] = test: Number of survivors per number of HSV-2 infected mice treated with 125 mg/kg per day; 3/10; format: functional
Human alphaherpesvirus 1 [3] = test: Tested for mean day to death of nonsurvivors against HSV-1 infection in mice at 3.1 mg/kg per day; format: functional
Human alphaherpesvirus 2 [4] = test: Number of survivors per number of HSV-2 infected mice treated with 7.8 mg/kg per day; 0/10; format: functional
Human alphaherpesvirus 1 [5] = test: Tested for mean day to death of nonsurvivors against HSV-1 infection in mice at 12.5 mg/kg per day; format: functional
Human alphaherpesvirus 2 [6] = test: Tested for mean day to death of nonsurvivors against HSV-2 encephalitis in mice at 125 mg/kg per day; format: functional
Human alphaherpesvirus 2 [7] = test: Tested for mean day to death of nonsurvivors against HSV-2 encephalitis in mice at 7.8 mg/kg per day; format: functional
Human alphaherpesvirus 2 [8] = test: (§1) Tested for the effective dose required to inhibit HSV-2 encephalitis in infected mice; format: functional
Human alphaherpesvirus 2 [9] = test: Number of survivors per number of HSV-2 infected mice treated with 31.2 mg/kg per day; 0/10; format: functional
Raji = test: Tested for the inhibition of diffuse early antigen production assayed by immunofluorescent monoclonal antibody in Raji cells; format: functional; conditions: Homo sapiens
Human alphaherpesvirus 1 [10] = test: Tested for mean day to death of nonsurvivors against HSV-1 infection in mice at 4.7 mg/kg/day; format: functional, herpes simplex virus
Human alphaherpesvirus 1 [11] = test: Number of survivors per number of HSV-1 infected mice treated with 1.2 mg/kg/day; 4/10; format: functional, herpes simplex virus
Murid betaherpesvirus 1 [12] = test: Number of survivors per number of systemic MCMV infected mice treated with 3.8 mg/kg/day; 7/15; format: functional
Human alphaherpesvirus 3 [13] = test: In vitro antiviral activity tested against herpesvirus, VZV, Ellen strain by plaque reduction assay in human foreskin fibroblasts; format: functional
Human alphaherpesvirus 2 [14] = test: Tested for mean day to death of nonsurvivors against HSV-2 encephalitis in mice at 31.2 mg/kg/day; format: functional, herpes simplex virus
Human alphaherpesvirus 2 [15] = test: In vitro antiviral activity tested against herpesvirus, HSV-2, X-79 strain by plaque reduction assay in human foreskin fibroblasts; format: functional
Murid betaherpesvirus 1 [16] = test: Number of survivors per number of systemic MCMV infected mice treated with 11.2 mg/kg/day; 9/15; format: functional
Human alphaherpesvirus 2 [17] = test: Tested for mean day to death of nonsurvivors against HSV-2 encephalitis in mice at 125 mg/kg/day; format: functional, herpes simplex virus
Murid betaherpesvirus 1 [18] = test: Tested for the effective dose required to inhibit systemic MCMV in infected mice; format: functional
Human alphaherpesvirus 2 [19] = test: Number of survivors per number of HSV-2 infected mice treated with 31.2 mg/Kg/day; 4/10; format: functional, herpes simplex virus
[20] = tested on: Human immunodeficiency virus 1; test: Tested for the determination of percentage protection at 100 uM against HIV-1 in ATH8 cells; format: functional, ATH-8
Human betaherpesvirus 5 [21] = test: In vitro antiviral activity tested against herpesvirus, HCMV, AD169 strain by plaque reduction assay in human foreskin fibroblasts; format: functional
Murid betaherpesvirus 1 [22] = test: Number of survivors per number of systemic MCMV infected mice treated with 100 mg/kg/day; 13/15; format: functional
Murid betaherpesvirus 1 [23] = test: In vitro antiviral activity tested against herpesvirus, MCMV, Smith strain by plaque reduction assay in mouse embryo fibroblasts; format: functional
[24] = tested on: Human immunodeficiency virus 1; test: Tested for the determination of percentage protection at 10 uM against HIV-1 in ATH8 cells; format: functional, ATH-8
Murid betaherpesvirus 1 [25] = test: Number of survivors per number of systemic MCMV infected mice treated with 33.4 mg/kg/day; 13/15; format: functional
Human alphaherpesvirus 2 [26] = test: In vitro antiviral activity tested against herpesvirus, HSV-2, JEN strain by plaque reduction assay in human foreskin fibroblasts; format: functional
Human alphaherpesvirus 2 [27] = test: In vitro antiviral activity tested against herpesvirus, HSV-2, HEET strain by plaque reduction assay in human foreskin fibroblasts; format: functional
Human betaherpesvirus 5 [28] = test: In vitro antiviral activity tested against herpesvirus, HCMV, LA strain by plaque reduction assay in human foreskin fibroblasts; format: functional
Human betaherpesvirus 5 [29] = test: In vitro antiviral activity tested against herpesvirus, HCMV, EC strain by plaque reduction assay in human foreskin fibroblasts; format: functional
Human betaherpesvirus 5 [30] = test: In vitro antiviral activity tested against herpesvirus, HCMV, Davis strain by plaque reduction assay in human foreskin fibroblasts; format: functional
Human alphaherpesvirus 3 [31] = test: In vitro antiviral activity tested against herpesvirus, VZV, OKA strain by plaque reduction assay in human foreskin fibroblasts; format: functional
[32] = tested on: Human immunodeficiency virus 1; test: Tested for the determination of percentage toxicity at 1 uM against HIV-1 in ATH8 cells; format: organism-based; conditions: human immunodeficiency virus 1, ath-8, 1 µM
Human alphaherpesvirus 2 [33] = test: In vitro antiviral activity tested against herpesvirus, HSV-2, MS strain by plaque reduction assay in human foreskin fibroblasts; format: functional
Human alphaherpesvirus 2 [34] = test: Number of survivors per number of HSV-2 infected mice treated with 7.8 mg/Kg/day; 5/10; format: functional, herpes simplex virus
[35] = tested on: Human immunodeficiency virus 1; test: Tested for the determination of percentage protection at 1 uM against HIV-1 in ATH8 cells; format: functional, ATH-8
Human alphaherpesvirus 1 [36] = test: Number of survivors per number of HSV-1 infected mice treated with 18.7 mg/kg/day; 10/10; format: functional, herpes simplex virus
Homo sapiens = organism: Homo sapiens; test: The drug concentration was determined to reduce proliferation of human foreskin fibroblasts to 50% of untreated controls in proliferation assay; format: functional; conditions: read-out: ID50 (the source's name)
Human alphaherpesvirus 1 [37] = test: Tested for the effective dose required to inhibit HSV-1 in infected mice; format: functional, herpes simplex virus
[38] = tested on: Human immunodeficiency virus 1; test: Tested for the determination of percentage toxicity at 50 uM against HIV-1 in ATH8 cells; format: organism-based; conditions: human immunodeficiency virus 1, ath-8, 50 µM
Murid betaherpesvirus 1 [39] = test: Tested for mean day to death of nonsurvivors against systemic MCMV infection in mice at 3.8 mg/kg/day; format: functional
Human alphaherpesvirus 1 [40] = test: In vitro antiviral activity tested against herpesvirus, HSV-1, E-377 strain by plaque reduction assay in human foreskin fibroblasts; format: functional
Human alphaherpesvirus 2 [41] = test: Number of survivors per number of HSV-2 infected mice treated with 125 mg/kg/day; 8/10; format: functional, herpes simplex virus
[42] = tested on: Human immunodeficiency virus 1; test: Tested for the determination of percentage protection at 50 uM against HIV-1 in ATH8 cells; format: functional, ATH-8
[43] = tested on: Human immunodeficiency virus 1; test: Tested for the determination of percentage toxicity at 100 uM against HIV-1 in ATH8 cells; format: organism-based; conditions: human immunodeficiency virus 1, ath-8, 100 µM
Human alphaherpesvirus 2 [44] = test: Tested for mean day to death of nonsurvivors against HSV-2 encephalitis in mice at 7.8 mg/kg/day; format: functional, herpes simplex virus
Murid betaherpesvirus 1 [45] = test: Tested for mean day to death of nonsurvivors against systemic MCMV infection in mice at 11.2 mg/kg/day; format: functional
Murid betaherpesvirus 1 [46] = test: Tested for mean day to death of nonsurvivors against systemic MCMV infection in mice at 100 mg/kg/day; format: functional
Murid betaherpesvirus 1 [47] = test: Tested for mean day to death of nonsurvivors against systemic MCMV infection in mice at 33.4 mg/kg/day; format: functional
Human alphaherpesvirus 2 [48] = test: as §1; format: functional, herpes simplex virus
Human alphaherpesvirus 1 [49] = test: Number of survivors per number of HSV-1 infected mice treated with 4.7 mg/kg/day; 7/10; format: functional, herpes simplex virus
[50] = tested on: Human immunodeficiency virus 1; test: Tested for the determination of percentage toxicity at 10 uM against HIV-1 in ATH8 cells; format: organism-based; conditions: human immunodeficiency virus 1, ath-8, 10 µM
Human alphaherpesvirus 1 [51] = test: Tested for mean day to death of nonsurvivors against HSV-1 infection in mice at 1.2 mg/kg/day; format: functional, herpes simplex virus
[52] = tested on: Human immunodeficiency virus 1; test: Tested for the determination of percentage toxicity at 2 uM against HIV-1 in ATH8 cells; format: organism-based; conditions: human immunodeficiency virus 1, ath-8, 2 µM
[53] = tested on: Human immunodeficiency virus 1; test: Tested for the determination of percentage protection atuM against HIV-1 in ATH8 cells; format: functional, ATH-8
[54] = tested on: Human immunodeficiency virus 1; test: Tested for the determination of percentage protection atuM against HIV-1 in ATH8 Cells; format: functional
[55] = tested on: Human immunodeficiency virus 1; test: Tested for the determination of percentage toxicity at 500 uM against HIV-1 in ATH8 cells; format: organism-based; conditions: human immunodeficiency virus 1, ath-8, 500 µM
[56] = tested on: Human immunodeficiency virus 1; test: Tested for the determination of percentage protection at 10 uM against HIV-1 in ATH8; format: functional
[57] = read-out: ED50 (the source's name)
[58] = read-out: ID50 (the source's name)

Nc1ncnc2c1ncn2[C@@H]1O[C@H](CO)[C@@H](O)[C@@H]1O [VIDARABINE]
MDD (Human alphaherpesvirus 2 [1]): 9.3
Survivors / treated (Human alphaherpesvirus 2 [2]): 3
MDD (Human alphaherpesvirus 1 [3]): 6.9
Survivors / treated (Human alphaherpesvirus 2 [4]): 0
MDD (Human alphaherpesvirus 1 [5]): 13.5
MDD (Human alphaherpesvirus 2 [6]): 11.1
MDD (Human alphaherpesvirus 2 [7]): 7.9
ED50 (Human alphaherpesvirus 2 [8]): > 125 mg/kg/day
Survivors / treated (Human alphaherpesvirus 2 [9]): 0

Nc1nc(O)c2ncn([C@@H]3C[C@H](CO)C3CO)c2n1 (some centres undefined)
EC50 (Raji; [57]): 0.01 µg/mL (≈ 0.0377 µM)
IC50 (Raji; [58]): 94 µg/mL (≈ 354 µM)
MDD (Human alphaherpesvirus 1 [10]): 9.3
Survivors / treated (Human alphaherpesvirus 1 [11]): 4
Survivors / treated (Murid betaherpesvirus 1 [12]): 7
EC50 (Human alphaherpesvirus 3 [13]; [57]): 0.4 µg/mL (≈ 1.51 µM)
IC50 (Human alphaherpesvirus 3 [13]; [58]): > 100 µg/mL
MDD (Human alphaherpesvirus 2 [14]): 11.2
EC50 (Human alphaherpesvirus 2 [15]; [57]): 0.06 µg/mL (≈ 0.226 µM)
IC50 (Human alphaherpesvirus 2 [15]; [58]): > 100 µg/mL
Survivors / treated (Murid betaherpesvirus 1 [16]): 9
MDD (Human alphaherpesvirus 2 [17]): 16.3
ED50 (Murid betaherpesvirus 1 [18]): 2.2 mg/kg/day
Survivors / treated (Human alphaherpesvirus 2 [19]): 4
Protection [20]: 11%
EC50 (Human betaherpesvirus 5 [21]; [57]): 6.2 µg/mL (≈ 23.4 µM)
IC50 (Human betaherpesvirus 5 [21]; [58]): > 100 µg/mL
Survivors / treated (Murid betaherpesvirus 1 [22]): 13
EC50 (Murid betaherpesvirus 1 [23]; [57]): 0.1 µg/mL (≈ 0.377 µM)
IC50 (Murid betaherpesvirus 1 [23]; [58]): > 100 µg/mL
Protection [24]: 100%
Survivors / treated (Murid betaherpesvirus 1 [25]): 13
EC50 (Human alphaherpesvirus 2 [26]; [57]): 0.05 µg/mL (≈ 0.188 µM)
IC50 (Human alphaherpesvirus 2 [26]; [58]): > 100 µg/mL
EC50 (Human alphaherpesvirus 2 [27]; [57]): 0.07 µg/mL (≈ 0.264 µM)
IC50 (Human alphaherpesvirus 2 [27]; [58]): > 100 µg/mL
EC50 (Human betaherpesvirus 5 [28]; [57]): 1.2 µg/mL (≈ 4.52 µM)
IC50 (Human betaherpesvirus 5 [28]; [58]): > 100 µg/mL
EC50 (Human betaherpesvirus 5 [29]; [57]): 3.9 µg/mL (≈ 14.7 µM)
IC50 (Human betaherpesvirus 5 [29]; [58]): > 100 µg/mL
EC50 (Human betaherpesvirus 5 [30]; [57]): 4.9 µg/mL (≈ 18.5 µM)
IC50 (Human betaherpesvirus 5 [30]; [58]): > 100 µg/mL
EC50 (Human alphaherpesvirus 3 [31]; [57]): 0.4 µg/mL (≈ 1.51 µM)
IC50 (Human alphaherpesvirus 3 [31]; [58]): > 100 µg/mL
Cytotoxity [32]: 8%
EC50 (Human alphaherpesvirus 2 [33]; [57]): 0.07 µg/mL (≈ 0.264 µM)
IC50 (Human alphaherpesvirus 2 [33]; [58]): > 100 µg/mL
Survivors / treated (Human alphaherpesvirus 2 [34]): 5
Protection [35]: 29%
Survivors / treated (Human alphaherpesvirus 1 [36]): 10
IC50 (Homo sapiens): 27 µg/mL (≈ 102 µM)
ED50 (Human alphaherpesvirus 1 [37]): 1.9 mg/kg/day
Cytotoxity [38]: 41%
MDD (Murid betaherpesvirus 1 [39]): 5.9
EC50 (Human alphaherpesvirus 1 [40]; [57]): 0.05 µg/mL (≈ 0.188 µM)
IC50 (Human alphaherpesvirus 1 [40]; [58]): > 100 µg/mL
Survivors / treated (Human alphaherpesvirus 2 [41]): 8
Protection [42]: 46%
Cytotoxity [43]: 83%
MDD (Human alphaherpesvirus 2 [44]): 12.1
MDD (Murid betaherpesvirus 1 [45]): 5.8
MDD (Murid betaherpesvirus 1 [46]): 3.5
MDD (Murid betaherpesvirus 1 [47]): 4.5
ED50 (Human alphaherpesvirus 2 [48]): 39.8 mg/kg/day
Survivors / treated (Human alphaherpesvirus 1 [49]): 7
Cytotoxity [50]: 0%
MDD (Human alphaherpesvirus 1 [51]): 9.3

Nc1nc2c(ncn2[C@H]2CC[C@@H](CO)O2)c(=O)[nH]1
Cytotoxicity [52]: 0%
Protection [20]: 99%
Protection [53]: 48%
Protection [54]: 54%
Cytotoxicity [43]: 4%
Cytotoxicity [55]: 50%
Protection [56]: 100%
Cytotoxicity [50]: 0%
